Laboratory results from patent publication US5637619A, “Antitumor 2-aminocarbonyl-1, 2-bis(methylsulfonyl)-1-(substituted)hydrazines” (Yale University, priority 1995, dated 1997).
Read-outs that look alike come from different tables or passages of the source.

Assays:
liver microsomal enzymes = settings: NADPH-dependent; cited from earlier work
glutathione reductase = settings: cited from earlier work
[1] = test system: glutathione S-transferase mu isoenzymes; settings: rat isoenzymes; cited from earlier work
ribonucleotide reductase = settings: cited from earlier work
[2] = test system: M5076 reticulum cell sarcoma; assay: M5076 reticulum cell sarcoma, sc implanted; format: in vivo, C57BL/6 mice
Protocol: (§1) The M5076 reticulum cell sarcoma was passaged biweekly by sc transfer of tumor fragments into C57BL/6 mice, and the M109 lung carcinoma was similarly passaged in BALB/c mice. The LX-1 human lung carcinoma was passaged sc every two to three weeks in BALB/c-background athymic (nu/nu) mice. For use in these systems, compound III was dissolved in: (a) 100% DMSO and administered by iv injection in a fixed volume of 10 microliters; or (b) DMSO diluted with saline to a final concentration of 10% DMSO and administered iv in a volume of 0.01 milliliter/g of body weight. […] Mitomycin C and cyclophosphamide were dissolved and administered in saline. BCNU and MeCCNU were dissolved in ethanol and diluted 1:9 (v/v) with water prior to administration.
(§2) Five mice per group were employed in experiments with the B16F10 melanoma, and 8 mice per group with the M5076 sarcoma, the M109 carcinoma and the LX-1 carcinoma. A minimum of two dose levels per compound were included in each evaluation and drug therapy was initiated 24 h after tumor implantation for the M5076 sarcoma and M109 carcinoma. In the LX-1 experiment, tumor bearing mice were selected and sorted into treatment and control groups on day 6 post-tumor implant such that all tumor weights ranged from 50-100 mg and median tumor weights per group were reasonably similar. Therapeutic results are presented in terms of: (a) increases in lifespan reflected by the relative median survival time (MST) of treated versus control groups (i.e., %T/C values), and by long-term survivors, and (b) primary tumor growth inhibition (i.e., T-C values) determined by calculating the relative median times for treated (T) and control untreated (C) mice to grow tumors of a 0.5 g size for the LX-1 carcinoma or a 1 g size for the murine neoplasms. Tumor weights were interchangeable with tumor size on the basis of 1 mm^3 =1 mg. […] The activity criterion for tumor inhibition was a delay in tumor growth consistent with one log10 cell kill (LCK). The absolute T-C value needed to attain this level of efficacy varied from experiment to experiment and depended upon the tumor volume doubling time of the control mice in each study. Treated mice dying prior to day 10 in the ip M109 experiment, or dying before their tumors achieved 0.5 g for the LX-1 carcinoma or 1 g in size for all other sc tumor models, were considered to have died from drug toxicity. Groups of mice with more than one death due to drug toxicity were not used in the evaluation of antitumor efficacy. Statistical evaluations of data were performed using Gehan's generalized Wilcoxan test (Gehan, Biometrika, 1965, 52, 203-233).
Compound III was also evaluated against the M5076 reticulum cell sarcoma implanted sc. When administered iv at a level of 48 mg/kg per injection in 100% DMSO every other day for five days, compound III cured 6 out of 8 mice and consequently, no median time (T-C value) to reach 1 gram size tumors was expressed for this group. Tumor growth in mice receiving only 100% DMSO was indistinguishable from that of untreated control animals. 1-(2-Chloroethyl)-3-(4-methylcyclohexyl)-1-nitrosourea (MeCCNU) and BCNU were included in this experiment for comparison. The former achieved a maximum %T/C of 128 and a delay in tumor growth of 33.5 days at 16 mg/kg per injection administered iv every fourth day for three total injections, while BCNU, administered iv on the same treatment schedule, produced a %T/C in excess of 157, with 2 out of 8 cures, and a T-C of >62 days (data not shown).

thioredoxin reductase = settings: cited from earlier work
[3] = test system: glutathione S-transferase mu isoenzymes; settings: human isoenzymes; cited from earlier work
[4] = test system: LX-1 human lung carcinoma; assay: LX-1 human lung carcinoma xenograft, sc in athymic mice; format: in vivo, human tumor in athymic (nu/nu) mice; settings: 20 mg/kg per injection (optimum), iv every fourth day × 3
Protocol: as §1, §2
The human lung tumor, LX-1, xenografted sc in athymic mice, was also used to examine the antineoplastic potential of compound III. […]

[5] = test system: colon CX-1 human tumor xenografts; settings: subrenal capsule, athymic mice; cited from earlier work
[6] = test system: mammary MX-1 human tumor xenografts; settings: subrenal capsule, athymic mice; cited from earlier work
L1210 leukemia = L1210 leukemia survival time in mice (ip implanted); format: in vivo, mice (CD2F1)
Protocol: (§3) Leukemia L1210 cells were obtained from the Frederick Cancer Research Facility, Division of Cancer Treatment Tumor Repository of the National Cancer Institute, and were maintained by serial passage in tissue culture. Every 8 weeks, tumor cells were injected intraperitoneally into five donor CD2 F1 mice 8- to 10- weeks of age and were allowed to grow for 7 days. The peritoneal fluid was withdrawn and the suspension was centrifuged for 5 min at 1600 g. The supernatant was decanted and 10^5 cells/mL were seeded into 10 mL of RPMI 1640 medium supplemented with 10% fetal bovine serum and 1% L-glutamine, and once again maintained in culture. To assay for antineoplastic activity, 0.1 mL of the cell suspension containing 10^5 L1210 leukemia cells was injected ip into each recipient mouse. Test compounds were administered over a wide range of dosage levels, beginning 24 h after tumor implantation, and continued once daily for 6 consecutive days. All drugs were administered ip as a solution in 100% dimethylsulfoxide (DMSO), in a volume not exceeding 0.025 mL. […] Mice were weighed during the course of the experiments, and the percentage change in body weight from onset to termination of therapy was used as an indication of drug toxicity. Determination of the sensitivity of neoplasms to these agents was based upon the prolongation of survival time afforded by the drug treatments.
(§4) ^a Administered ip once daily for six consecutive days, beginning 24 hours after tumor implantation, with 5-10 mice being used per group. ^b Average percent change in body weight from onset to termination of therapy. ^c % T/C=average survival time of treated/control mice×100; cures (>60-day survivors) are listed separately and are not included in this calculation.

B16F10 melanoma = assay: B16F10 melanoma, tumor growth delay in mice; format: in vivo, C57BL/6 mice; settings: 100% DMSO
Protocol: B16F10 melanoma cells were grown in vitro as monolayers in minimum essential medium with Hank's salts supplemented with 10% fetal bovine serum and 1% 200 mM L-glutamine solution. Solid tumors were produced in C57BL/6 female mice 12- to 14-weeks of age by the intradermal injection in the right flank of each mouse of 0.1 mL of a cell suspension containing 10^6 B16F10 cells/mL from freshly trypsinized cultures. After 10-12 days, animals bearing approximately 100 mm^3 tumors were treated ip with compound III or IV dissolved in 100% DMSO for 6 consecutive days, and tumor volumes were measured on alternate days until reaching 1000 mm^3.
as §2
In addition, both compounds III and IV were evaluated in 100% DMSO against the B16F10 melanoma implanted intradermally (id) in mice (Table III). In an initial experiment, compound IV produced a T-C of 15.5 days at a daily dosage level of 20 mg/kg administered once daily for six consecutive days beginning on day 10 post-implant. In the same experiment, using the same treatment schedule, a growth delay of 11 days was obtained with compound III. […] Thus, the aminocarbonyl component in this class of agents influences the magnitude of the antitumor effects obtained against the B16F10 melanoma.

[7] = Body weight change / toxicity in L1210-bearing mice; format: in vivo, mice (CD2F1); settings: for Av. Wt. Change %: L1210-bearing mice
Protocol: as §3, §4

M109 lung carcinoma [8] = assay: M109 lung carcinoma, sc implanted; format: in vivo, BALB/c mice
Protocol: as §1, §2
Compound III was also evaluated against the M109 lung carcinoma implanted subcutaneously (sc). In the initial test using this model, a dose of 50 mg/kg per injection of this compound was administered intravenously (iv) in 10% DMSO in saline every fourth day for a total of three injections. […] Mitomycin C, used as a reference drug, produced a maximum %T/C of 103 and a delay in tumor growth of 10 days (data not shown). A subsequent evaluation of compound III was performed using four different doses on a slightly different schedule, i.e., 24, 32, 48 and 64 mg/kg administered every third day for four total injections, and two vehicles, 10% DMSO in saline and 100% DMSO. […] Cyclophosphamide and mitomycin C were included as reference drugs in the last experiment. The former compound produced a maximum %T/C of 143 and a delay in tumor growth of 8.8 days, while mitomycin C produced a maximum %T/C of 134 and a T-C value of 9.3 days (data not shown). As reported earlier, compound X achieved a maximum %T/C of 136 and a maximum T-C value of 14.5 days against this tumor (Shyam, et al., J. Med. Chem., 1993, 36, 3496).

[9] = test system: M5076 reticulum cell sarcoma; settings: compared with compound III or BCNU; cited from earlier work
M109 lung carcinoma [10] = settings: as reported earlier (J. Med. Chem. 1993, 36, 3496); cited from earlier work
M109 lung carcinoma [11] = settings: 60 mg/kg per injection, highest dosage level, ip q4d × 3; different experiment; cited from earlier work
[12] = chloroethylating agent with no carbamoylating activity; cited from earlier work
[13] = iv every fourth day × 3 (same treatment schedule as MeCCNU)
[14] = reference drugs in last experiment (experiment b)
[15] = 16 mg/kg per injection, iv every fourth day × 3
[16] = reference drug in initial test (experiment a)

**Q.** Which “inactivation by denitrosation (in words)” value (liver microsomal enzymes) does the source give for `O=NN(CCCl)C(=O)NCCCl` [BCNU, 1,3-bis(2-chloroethyl)-1-nitrosourea] here?
**A.** inactivated by denitrosation by liver microsomal enzymes

**Q.** And the “inhibition of glutathione reductase (in words)” value (glutathione reductase)?
**A.** inhibit glutathione reductase

**Q.** What about the “glutathione-dependent denitrosation (in words)” value [1] of the same compound?
**A.** undergo glutathione-dependent denitrosation

**Q.** And the “inhibition of ribonucleotide reductase (in words)” value (ribonucleotide reductase)?
**A.** inhibit glutathione reductase, ribonucleotide reductase

**Q.** What about the “%T/C” value [2, 13] of the same compound?
**A.** > 157%

**Q.** And the T-C [2, 13]?
**A.** > 62 days

**Q.** What about the cures [2, 13] of the same compound?
**A.** 2 out of 8

**Q.** And the “inhibition of thioredoxin reductase (in words)” value (thioredoxin reductase)?
**A.** inhibit glutathione reductase, ribonucleotide reductase and thioredoxin reductase

**Q.** And the “glutathione-dependent denitrosation (in words)” value [3]?
**A.** undergo glutathione-dependent denitrosation

**Q.** And the T-C [4]?
**A.** 11.8 days

**Q.** And the “log10 cell kill (LCK)” value [4]?
**A.** 1.3 LCK

**Q.** Which “antitumor activity (in words)” value [5] does the source give for `CNC(=O)ON(C(C)=O)C(=O)NC` [Caracemide] here?
**A.** active

**Q.** And the “antitumor activity (in words)” value [6]?
**A.** active

**Q.** Which results are given for `CNC(=O)N(N(CCCl)S(C)(=O)=O)S(C)(=O)=O` [Compound IV, 1,2-Bis(methylsulfonyl)-1-(2-chloroethyl)-2-methylaminocarbonylhydrazine]?
**A.** % 60 Day Survivors (cures) (L1210 leukemia; 5 mg/kg ip once daily × 6): 40%; %T/C (average survival time treated/control × 100) (L1210 leukemia; 5 mg/kg ip once daily × 6, cures not included): 234%; % 60 Day Survivors (cures) (L1210 leukemia; 10 mg/kg ip once daily × 6): 100%; % 60 Day Survivors (cures) (L1210 leukemia; 15 mg/kg ip once daily × 6): 100%; antileukemic activity / therapeutic potential (in words) (L1210 leukemia; qualitative, L1210 leukemia in mice): much better therapeutic potential than the amino acid ester derivatives; T-C (B16F10 melanoma; experiment a, 10 mg/kg/injection, qd × 6 from day 10, ip): 5.0 days; T-C, growth delay (B16F10 melanoma; experiment a, 20 mg/kg/injection, qd × 6 from day 10, ip): 15.5 days; T-C (B16F10 melanoma; experiment b, 20 mg/kg/injection, qd × 6 from day 12, ip): 10.0 days; T-C, growth delay (B16F10 melanoma; experiment b, 30 mg/kg/injection, qd × 6 from day 12, ip): 25.5 days; Av. Wt. Change % ([7]; 5 mg/kg ip once daily × 6): +9.9%; body weight loss (in words) ([7]; 5 mg/kg × 6): no body weight loss; Av. Wt. Change % ([7]; 10 mg/kg ip once daily × 6): -5.6%; Av. Wt. Change % ([7]; 15 mg/kg ip once daily × 6): -2.1%; loss of body weight ([7]; 10 and 15 mg/kg × 6): < 6%

**Q.** Which “delay in tumor growth (T-C)” value (M109 lung carcinoma [8]; [14]) does the source give for `O=P1(N(CCCl)CCCl)NCCCO1` (stereo not shown) [Cyclophosphamide, cyclophosphamide, reference compound] here?
**A.** 8.8 days

**Q.** What about the “maximum %T/C” value (M109 lung carcinoma [8]; [14]) of the same compound?
**A.** 143%

**Q.** Which “delay in tumor growth (T-C)” value [2, 15] does the source give for `CC1CCC(NC(=O)N(CCCl)N=O)CC1` (stereo not shown) [MeCCNU, 1-(2-Chloroethyl)-3-(4-methylcyclohexyl)-1-nitrosourea] here?
**A.** 33.5 days

**Q.** What about the “maximum %T/C” value [2, 15] of the same compound?
**A.** 128%

**Q.** With `CO[C@@]12[C@H](COC(N)=O)C3=C(C(=O)C(C)=C(N)C3=O)N1C[C@@H]1N[C@@H]12` [Mitomycin C, mitomycin C, reference compound] as the compound, how does the “delay in tumor growth (T-C)” value (M109 lung carcinoma [8]; [16]) read?
**A.** 10 days

**Q.** And the “maximum %T/C” value (M109 lung carcinoma [8]; [16])?
**A.** 103%

**Q.** And the “delay in tumor growth (T-C)” value (M109 lung carcinoma [8]; [14])?
**A.** 9.3 days

**Q.** And the “maximum %T/C” value (M109 lung carcinoma [8]; [14])?
**A.** 134%

**Q.** Which results are given for `CC(=O)N(N(CCCl)S(C)(=O)=O)S(C)(=O)=O` [X]?
**A.** activity against M5076 (in words) [9]: much less active than compound III or BCNU; maximum %T/C (M109 lung carcinoma [10]): 136%; maximum T-C value (M109 lung carcinoma [10]): 14.5 days; %T/C (median survival time) (M109 lung carcinoma [11]): 231%

**Q.** For `CS(=O)(=O)CS(=O)(=O)OCCCl` [clomesone], which “antineoplastic activity (in words)” value [12] is on record?
**A.** excellent antineoplastic activity
